Reference: the supplement of paper PMC8671470
Counter-ions that a name gives are not always drawn.

Legend:
Conditions in all cases: 72 h
[1] = tested on: BV-173
How it was run: (§1)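 The IC50 was read from log-logistic dose–response fits. Fifteen myeloid leukaemia lines were exposed for 72 h at 37 °C with 5% CO2 to five tenfold doses from 1 to 10,000 nM in duplicate. ATP luminescence, normalised to vehicle and to a 10 µM positive control, was fitted with four parameters.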

[2] = tested on: HEL
How it was run: as §1

[3] = tested on: HL-60
How it was run: as §1

[4] = tested on: K-562
How it was run: as §1

[5] = tested on: KCL-22
How it was run: as §1

[6] = tested on: KG-1
How it was run: as §1

[7] = tested on: KU-812
How it was run: as §1

[8] = tested on: LAMA-84
How it was run: as §1

[9] = tested on: ML-2
How it was run: as §1

[10] = tested on: MOLM-13
How it was run: as §1

[11] = tested on: MV4-11
How it was run: as §1

[12] = tested on: Mono-Mac-6
How it was run: as §1

[13] = tested on: NOMO-1
How it was run: as §1

[14] = tested on: SHI-1
How it was run: as §1

[15] = tested on: THP-1
How it was run: as §1

[16] = tested on: HL-60; test: cell viability (% survival relative to DMSO control); higher = less cytotoxic
How it was run: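 For each screen, HL-60 cells in RPMI 1640 with 10% FBS carried either DMSO or 100 nM of one of three metabolic inhibitors while the full library was applied at five tenfold concentrations, 1–10,000 nM, in duplicate. Plates were 384-well and were kept 72 h at 37 °C, 5% CO2. Viability, measured by CellTiter-Glo, was normalised to wells with DMSO and with 10 μM proteasome inhibitor. Where area under the curve appears, it was fitted by four-parameter log-logistic models in drc and PharmacoGx.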

[17] = tested on: K-562; test: cell viability (% survival relative to DMSO control, bortezomib = 0%); higher = less cytotoxic
How it was run: (§2)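 After 72 h at 37 °C with 5% CO2, cell viability in 384-well plates was measured by CellTiter-Glo luminescence. The plates held compounds pre-printed at 1, 10, 100, 1000 or 10000 nM in duplicate, and cells from 10 AML and 5 CML lines seeded at densities titrated to linear growth. Percent survival is the duplicate mean, normalised to vehicle as 100% and a 10 µM positive control as 0%.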

[18] = tested on: KCL-22; test: as above
How it was run: as §2

[19] = tested on: KG-1; test: as above
How it was run: as §2

[20] = tested on: KU-812; test: as above
How it was run: as §2

[21] = tested on: LAMA-84; test: as above
How it was run: as §2

[22] = tested on: ML-2; test: as above
How it was run: as §2

[23] = tested on: MOLM-13; test: as above
How it was run: as §2

[24] = tested on: MV4-11; test: as above
How it was run: as §2

[25] = tested on: NOMO-1; test: as above
How it was run: as §2

[26] = tested on: SHI-1; test: as above
How it was run: as §2

[27] = tested on: THP-1; test: as above
How it was run: as §2

O=C(Oc1cccc(F)c1OC(=O)c1cccc(O)c1)c1cccc(O)c1 [WZB117]
Conditions | IC50 (cell viability) [µM]
[1] | 4.56
[2] | > 10
[3] | 9.7
[4] | > 10
[5] | > 10
[6] | 5.35
[7] | 3.88
[8] | > 10
[9] | 5.89
[10] | 8.47
[11] | 2.93
[12] | 4.74
[13] | > 10
[14] | > 10
[15] | > 10

cell viability [%], [16]
Conditions | 0.001 µM | 0.01 µM | 0.1 µM | 1 µM | 10 µM
co-treatment: AZD3965 100 nM | 102.1 | 97.3 | 103.1 | 101.6 | 68.9
co-treatment: DMSO vehicle | 103 | 98.8 | 99 | 101 | 73.3
co-treatment: GSK2194069 100 nM | 102 | 91.2 | 95.2 | 99.8 | 84.6
co-treatment: pictilisib 100 nM | 111 | 100 | 96.8 | 97.1 | 70.9

cell viability [%]
Conditions | 1 nM | 10 nM | 100 nM | 1000 nM | 10000 nM
[17] | 96.2 | 101 | 102 | 106 | 79.1
[18] | 101 | 91.4 | 92 | 110 | 70.6
[19] | 113 | 95.7 | 87.6 | 90.4 | 30.7
[20] | 99.1 | 103 | 90.9 | 99.9 | 9.71
[21] | 97.9 | 98.6 | 92.4 | 95.1 | 101
[22] | 102 | 104 | 98.7 | 98.8 | 25.5
[23] | 92.2 | 125 | 94.7 | 94 | 44.8
[24] | 106 | 85.9 | 97 | 88.2 | 25.4
[25] | 95.5 | 94.3 | 94.1 | 111 | 82.1
[26] | 95.8 | 95.6 | 102 | 103 | 72.5
[27] | 101 | 102 | 101 | 108 | 64.9

CC(C)(Cc1ccccc1)NCC(O)c1ccc(O)c(NS(C)(=O)=O)c1 (stereo not given) [Zinterol hydrochloride]
Conditions | IC50 (cell viability) [µM]
[1] | > 10
[2] | > 10
[3] | > 10
[4] | > 10
[5] | > 10
[6] | > 10
[7] | > 10
[8] | > 10
[9] | > 10
[10] | > 10
[11] | > 10
[12] | 0.0976
[13] | > 10
[14] | > 10
[15] | > 10

cell viability [%], [16]
Conditions | 0.001 µM | 0.01 µM | 0.1 µM | 1 µM | 10 µM
co-treatment: AZD3965 100 nM | 99.4 | 83.1 | 101 | 93.8 | 95.4
co-treatment: DMSO vehicle | 99.8 | 91.6 | 99.8 | 102 | 95.5
co-treatment: GSK2194069 100 nM | 97.9 | 100 | 95.1 | 101 | 94.64
co-treatment: pictilisib 100 nM | 85.5 | 91.4 | 86.6 | 90.4 | 72.6

cell viability [%]
Conditions | 1 nM | 10 nM | 100 nM | 1000 nM | 10000 nM
[17] | 92.5 | 107 | 99.9 | 107 | 111
[18] | 96.1 | 99.4 | 98.2 | 103 | 95.6
[19] | 118 | 94.5 | 99.6 | 87.9 | 102
[20] | 113 | 93.9 | 106 | 87.1 | 97.6
[21] | 106 | 99.1 | 112 | 96.6 | 101
[22] | 95.4 | 93.3 | 93 | 93.9 | 103
[23] | 90.9 | 86.8 | 82.3 | 90.7 | 98
[24] | 89.7 | 79.9 | 84.5 | 74.3 | 88.4
[25] | 107 | 107 | 101 | 98.6 | 97.4
[26] | 111 | 112 | 103 | 110 | 120
[27] | 109 | 101 | 111 | 103 | 102
